# Measurements from patent publication EP0345906B1, “Unique elastase induced fibrinogen cleavage site antigens” (MERCK & CO. INC., priority 1988, dated 1989).
# “And” between values parts separate entries of the source, which are not always exact repeats. Identical values can stand only once.
# Assays:
# [1] = test system: Whole Blood of PiZZ and Normal Individuals; assay: A23187-stimulated production of fibrinogen cleavage peptide in blood of PiZZ and normal individuals; type: cell-based, human; parameters: dose or concentration left out as unconfirmed; conditions: 37° for 25 minutes, one value per individual
# Experimental: Heparinized venous blood was drawn from four individuals who process the PiZZ phenotype, deficient for alpha-1 proteinase inhibitor. Blood was also collected from two normal volunteers. Calcium ionophore A23187 was added to replicate aliquots of the freshly drawn blood to a final concentration of 150 mM. The blood was incubated at 37° for 25 minutes, the plasma collected and assayed cleavage peptide.
# Values are expressed as pM Aα 17-21 epitope containing peptide produced per ml of plasma. The blood samples derived from the four individuals who were genetically deficient in alpha-1 proteinase inhibitor produced greater amounts of peptide than did those derived from the normal volunteers. Under basal conditions no fibrinogen cleavage products could be detected in the blood of any of the donors.
# whole blood = assay: In vitro production of Aα 17-21 epitope containing peptide in whole blood, ionophore incubation time; type: cell-based, human; parameters: dose or concentration left out as unconfirmed
# Experimental: Calcium ionophore A23187 was added to replicate 1.0 ml aliquots of freshly-drawn heparinized whole blood as described above, to a final concentration of 150 mM. Additional control aliquots of blood received DMSO at a concentration of 0.2%. The blood aliquots were incubated at 37° for various time intervals ranging up to 60 minutes. Following the incubation, plasma was prepared, processed and assayed as above.
# whole human blood = assay: In vitro production of Aα 17-21 epitope containing peptide in human blood, effect of ionophore concentration; type: cell-based; parameters: Aα 17-21 Epitope Containing (picomoles per ml blood): unit of the concentration uncertain; conditions: for Aα 17-21 Epitope Containing (picomoles per ml blood): 15 minutes at 37°C
# Experimental: The radioimmunoassay was conducted in a total volume of 300 ml with all dilutions carried out in assay buffer, Example 6. Standard solutions were prepared at concentrations in the range of 1 x 10⁻¹⁰M to 2 x 1O⁻⁸M which represents amounts of peptide ranging from 0.01 picomoles to 2.0 picomoles in the 100 ml aliquot used in the assay. The assay included antibody-free controls to measure non-specific binding, and controls containing antibody and probe without added standard samples or unknown samples to determine the control level of peptide binding. To 100 ml of buffer, standard sample or unknown was added, 100 ml of specific antiserum from Examples 2 and 7, diluted 1:1,000 in assay buffer. This was followed by the addition of […] of radioactive probe, 125I-Tyrosyl-Aα 1-21 fibrinogen peptide, diluted in assay buffer to yield approximately 15,000 to 20,000 cpm per 100 ml aliquot. The assay was incubated overnight at 4°C and the non-antibody-bound radioactive probe was separated from antibody-bound probe by adsorption onto dextran-coated activated charcoal, see Example 7. Each assay included charcoal-free controls, to which 1 ml PBS was added for the determination of total counts. Radioactivity was determined using a gamma counter and standard techniques known in the art.
# The antibody-free control and the zero-peptide antibody control were counted to determine the 0% bound and 100% bound values respectively. The assay standards are then counted and divided by the antibody control to determine the percent bound and a standard curve was generated. When the percent bound is plotted as a function of the logarithem of the amount of peptide in the standard, a sigmoidal curve is generated which is close to linear between the limits of 80% bound and 20% bound. Unknowns are counted, their percent of control calculated and they are compared to the standard curve to determine the amount of peptide present in the sample. Only those unknowns with values between 80% and 20% of control binding are considered valid.
# Duplicate 1.0 ml aliquots of freshly-drawn heparinized vaccutainers containing 50 u per ml whole human blood were incubated for 15 minutes at 37°C in the presence of calcium ionophore A23187 at concentrations ranging up to 200 mM. The calcium ionophore was dissolved in dimethyl sulfoxide (DMSO) with the DMSO concentration in blood kept constant at 0.2%. Following incubation the aliquots were placed on ice, centrifuged and the plasma collected. Plasma aliquots (400 ml) were removed and placed in 12 x 75 mm glass tubes and 1200 ml chilled ethanol was added to precipitate the protein. The sample was centrifuged and 800 ml of the supernatant fluid was removed and evaporated to dryness in a Speed-vac concentrator. The sample was reconstituted to original plasma volume with 200 ml of distilled water. Duplicate […] aliquots were assayed for Aα 17-21 epitope containing peptide (Aα 1-21) as described in this Example. […]
# [2] = test system: Rabbit antiserum prepared against the Aα 17-21 immunogen; assay: Antibody specificity radioimmunoassay, rabbit antiserum; type: binding; conditions: antiserum 1:1,000; probe ¹⁵I-tyrosyl-Aα 1-21; amount in 100 ml aliquot
# Experimental: Antibody specificity was determined by evaluating the ability of unlabelled peptides, specificity probes, of varying length, see Example 6, to inhibit the binding of the Aα 1-21radioactive probe. Rabbit antiserum prepared against the Aα 17-21 immunogen described in Example 2 was diluted in assay buffer, see Example 6, at a dilution of 1:1,000. The specificity peptides of Example 5 were diluted in assay buffer at concentrations ranging from 1.6 x 10⁻¹⁰ M to 1 x 10⁻⁵ M. One hundred ml of each dilution was added to 100 ml of antiserum and 100 ml of radioactive probe. This represents specificity probe peptide in concentrations ranging from 0.016 picomoles to 1.0 nanomoles in the 100 ml aliquot used in the assay. The radioactive probe […], see Example 5, was diluted in assay buffer to yield approximately 20,000 cpm per 100 ml aliquot, the amount used per sample or control. The assay was set up in a volume of 300 ml, with the volume made up where necessary with assay buffer. […]
# The antibody-free control and the zero-peptide antibody control are counted to determine the 0% bound and the 100% bound values respectively. Radioactivity was determined using a gamma counter and standard techniques known in the art. The samples containing the test peptides are then counted and the amount of radioactivity associated with the antibody-free control subtracted from each. […]
# Guinea Pig (#3) = assay: Antibody specificity radioimmunoassay, guinea pig antiserum; type: binding; conditions: probe ¹⁵I-tyrosyl-Aα 1-21
compound,measurement,setting,value
CNc1ccc2oc(C[C@H]3O[C@@]4(CC[C@H]3C)O[C@H]([C@H](C)C(=O)c3ccc[nH]3)[C@H](C)C[C@H]4C)nc2c1C(=O)O [A23187],"Aα 17-21 epitope containing peptide produced per ml of plasma, A23187",[1]; Normal individuals,4.2 pM per ml of plasma and 4.6 pM per ml of plasma
same,"Aα 17-21 epitope containing peptide produced per ml of plasma, A23187",[1]; PiZZ individuals,8.4 pM per ml of plasma and 26.5 pM per ml of plasma and 20.5 pM per ml of plasma and 17.8 pM per ml of plasma
same,Aα 17-21 Epitope (picomoles/ml plasma),whole blood; Incubation Time 2.5 minutes,2.3 picomoles/ml plasma
same,Aα 17-21 Epitope (picomoles/ml plasma),whole blood; Incubation Time 7.5 minutes,2.8 picomoles/ml plasma
same,Aα 17-21 Epitope (picomoles/ml plasma),whole blood; Incubation Time 10.0 minutes,3.5 picomoles/ml plasma
same,Aα 17-21 Epitope (picomoles/ml plasma),whole blood; Incubation Time 15.0 minutes,3.7 picomoles/ml plasma
same,Aα 17-21 Epitope (picomoles/ml plasma),whole blood; Incubation Time 20.0 minutes,3.7 picomoles/ml plasma
same,Aα 17-21 Epitope (picomoles/ml plasma),whole blood; Incubation Time 25.0 minutes,3.8 picomoles/ml plasma
same,Aα 17-21 Epitope (picomoles/ml plasma),whole blood; Incubation Time 30.0 minutes,3.8 picomoles/ml plasma
same,Aα 17-21 Epitope (picomoles/ml plasma),whole blood; Incubation Time 40.0 minutes,3.6 picomoles/ml plasma
same,Aα 17-21 Epitope (picomoles/ml plasma),whole blood; Incubation Time 50.0 minutes,3.1 picomoles/ml plasma
same,Aα 17-21 Epitope (picomoles/ml plasma),whole blood; Incubation Time 60.0 minutes,3.2 picomoles/ml plasma
same,Aα 17-21 Epitope (picomoles/ml plasma),whole blood; Incubation Time <1.0 minutes,0.7 picomoles/ml plasma
same,Aα 17-21 Epitope Containing (picomoles per ml blood),whole human blood; Ionophore Concentration 5 (unit uncertain),1.2 picomoles per ml blood
same,Aα 17-21 Epitope Containing (picomoles per ml blood),whole human blood; Ionophore Concentration 15 (unit uncertain),1.6 picomoles per ml blood
same,Aα 17-21 Epitope Containing (picomoles per ml blood),whole human blood; Ionophore Concentration 25 (unit uncertain),2.6 picomoles per ml blood
same,Aα 17-21 Epitope Containing (picomoles per ml blood),whole human blood; Ionophore Concentration 50 (unit uncertain),2.8 picomoles per ml blood
same,Aα 17-21 Epitope Containing (picomoles per ml blood),whole human blood; Ionophore Concentration 100 (unit uncertain),4.0 picomoles per ml blood
same,Aα 17-21 Epitope Containing (picomoles per ml blood),whole human blood; Ionophore Concentration 150 (unit uncertain),4.1 picomoles per ml blood
same,Aα 17-21 Epitope Containing (picomoles per ml blood),whole human blood; Ionophore Concentration 200 (unit uncertain),3.8 picomoles per ml blood
same,concentration giving optimal production of Aα 17-21 epitope-containing peptide,whole human blood; whole human blood,150 mM
Gly-Pro-Arg-Val-Val (GPRVV; printed: Gly-Pro-Arg-Val-Val) [Aα 17-21],Inhibitory Concentration (IC₅₀) picomoles Rabbit (#20),[2],1.6 picomoles
same,Inhibitory Concentration (IC₅₀) picomoles Guinea Pig (#3),Guinea Pig (#3),10 picomoles
